This test deals with T1, mTLR9 (Mus musculus, UniProt Q9EQU3).
T1 construct: Splenocytes isolated from male C57/BL6 mice; from tissue; host or cells: splenocytes from the spleen of male C57BL/6 mice
T1 sequence (Q9EQU3 26-1032): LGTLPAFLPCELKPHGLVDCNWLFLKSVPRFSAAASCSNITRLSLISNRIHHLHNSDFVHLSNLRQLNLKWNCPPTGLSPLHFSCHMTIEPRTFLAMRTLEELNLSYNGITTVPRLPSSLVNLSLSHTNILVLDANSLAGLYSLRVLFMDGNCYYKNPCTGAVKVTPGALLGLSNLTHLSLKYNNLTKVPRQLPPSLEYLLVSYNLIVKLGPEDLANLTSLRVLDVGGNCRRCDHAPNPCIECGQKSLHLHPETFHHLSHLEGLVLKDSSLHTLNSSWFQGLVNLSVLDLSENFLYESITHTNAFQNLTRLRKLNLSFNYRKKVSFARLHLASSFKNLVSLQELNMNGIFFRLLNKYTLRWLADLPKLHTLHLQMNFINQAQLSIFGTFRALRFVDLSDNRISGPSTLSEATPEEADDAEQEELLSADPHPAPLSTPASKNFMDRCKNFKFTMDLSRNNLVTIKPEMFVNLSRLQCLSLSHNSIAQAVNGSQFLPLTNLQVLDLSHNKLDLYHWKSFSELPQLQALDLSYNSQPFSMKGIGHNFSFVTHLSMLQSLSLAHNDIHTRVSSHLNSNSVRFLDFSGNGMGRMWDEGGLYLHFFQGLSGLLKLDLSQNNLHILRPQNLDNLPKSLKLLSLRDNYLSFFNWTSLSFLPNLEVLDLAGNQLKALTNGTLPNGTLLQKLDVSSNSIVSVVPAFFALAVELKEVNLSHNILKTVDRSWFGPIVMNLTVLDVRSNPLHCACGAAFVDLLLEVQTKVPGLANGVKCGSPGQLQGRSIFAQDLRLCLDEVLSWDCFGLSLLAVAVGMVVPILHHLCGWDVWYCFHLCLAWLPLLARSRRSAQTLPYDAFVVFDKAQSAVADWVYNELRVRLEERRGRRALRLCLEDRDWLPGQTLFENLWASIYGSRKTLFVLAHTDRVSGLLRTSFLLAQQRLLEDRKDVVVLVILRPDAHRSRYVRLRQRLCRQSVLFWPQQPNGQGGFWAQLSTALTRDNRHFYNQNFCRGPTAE
Description: mTLR9 antagonism (IL-6 and TNF-α release assay) in mouse splenocytes, CpG ODN-2006 stimulated. The settings on record: 1 μM, mouse splenocytes. Format: cell-based. From the text: mTLR9 and mTLR7 Antagonism (Cytokine Release Assay) in Mouse Splenocytes
TLR7 ligand R0006 (IDT, 5′-rU*rU*rG*rU*rU*rG*rU*rU*rG*rU*rU*rG*rU*rU*rG*rU*rU*rG*rU*rU-3′ (SEQ ID NO:1)), Liposomal transfection reagent—DOTAP (Roche, Cat. No. 11202375001), TLR9 ligand CpG ODN2006 (Sequence: T*C*G*T*C*G*T*T*T*T*G*T*C*G*T*T*T*T*G*T*C*G*T*T; *=phosphorothioate (SEQ ID NO:2)) DMSO (Sigma, D2650), RPMI Powder (Sigma, R6504), Fetal Bovine Serum (Gibco, 10270), Dulbecco's Phosphate Buffered Saline (Sigma, D1408), 96 well plate (Flat bottom, Costar 3599), ELISA kit for IL-6 (EBioscience, 88-7064-77 and TNFa (EBioscience, 88-7346-88), MACS Buffer (AutoMACS Rinsing Solution (Miltenyl Biotec, 130-091-222)+0.05% BSA), RBC lysis buffer (0.85% NH4Cl), 40 μm cell strainer (BD Falcon, 352340) Method: A. Isolation of Mouse Splenocytes
Mouse spleen was isolated from C57BL6 mouse and stored in 1× chilled PBS buffer until further processed. Spleen was transferred to a sterile petriplate and chopped in to 5-6 pieces in presence of MACS buffer (100 μl) with the help of fresh surgical blade and crushed with flat plunger of a sterile syringe. A uniform suspension was prepared by passing cells through a 40 μm cell strainer. Cells were centrifuged at 450×g for 5 minutes at 4° C., supernatant was discarded and pellet dislodged gently, resuspended in 2 ml of pre-warmed (37° C.) RBC lysis buffer at room temperature with continuous gentle mixing with 1 ml pipette. Lysis buffer was neutralized with 12 ml of chilled MACS buffer and cells were passed through 40 μm cell strainer. Cell suspension was collected in 15 ml MACS buffer and centrifuged at 450×g for 5 minutes at 4° C. Pellet was resuspended in 15 ml MACS buffer and centrifuged at 400×g for 5 minutes. Cells were resuspended in 10 ml of RPMI complete medium and viability was estimated by Trypan blue method.
mTLR9 Antagonism (IL-6 and TNF-α Release Assay):
500 μM stock of CpG ODN-2006 was prepared in sterile, endotoxin-free water. Dilutions of 10× concentrations of NCEs were prepared in incomplete RPMI media, maintaining a final DMSO concentration of 0.3%. NCEs were added in a concentration range of 30 μM to 1 nM in respective wells of assay plate, assay medium containing 0.3% DMSO were added to control wells. 0.2 million splenocytes were added to all the wells and incubated at 37° C. in 5% CO2 incubator for 30 minutes. 1 μg/ml of respective agonist was added to all the wells except those were assigned as negative controls and mixed thoroughly. Incomplete RPMI was added to negative control wells and incubated overnight at 37° C./5% CO2. The plate was centrifuged at 450×g for 5 minutes at room temperature and the supernatant was collected. ELISA was performed as per manufacturer's protocol. S/B Ratio, % Activity and % Inhibition was calculated using MS Excel. IC50 and inhibition curve was generated using Graph Pad Prism.

The mark [1] stands for this setting: IL-6 release, read-out: mTLR9 inhibitory activity (% at 1 μM), IL-6.
[2] abbreviates: TNF-α release, read-out: mTLR9 inhibitory activity (% at 1 μM), TNF-α.

The source of these data is patent publication US9643967B2, “Pyrrolo[3,2-c]pyridine derivatives as TLR inhibitors” (TAKEDA PHARMACEUTICAL COMPANY LIMITED, priority 2013, dated 2017).

Read-outs that look alike come from different tables or passages of the source.

For the compound `CC(C)N1CCN(c2ccc(-c3nccc4[nH]c(CN5CCOCC5)cc34)cc2)CC1` [Example A1, 4-[[4-[4-(4-isopropylpiperazin-1-yl)phenyl]-1H-pyrrolo[3,2-c]pyridin-2-yl]methyl]morpholine], the inhibition at 1 µM under setting [1] came to 100% and the inhibition at 1 µM under setting [2] came out at 94%.
For `CN1CCN(c2ccc(-c3nccc4[nH]c(CN5CCOCC5)cc34)cc2)CC1` [Example A2, 4-[[4-[4-(4-methylpiperazin-1-yl)phenyl]-1H-pyrrolo[3,2-c]pyridin-2-yl]methyl] morpholine], the inhibition at 1 µM is, setting by setting: under setting [1], 100%; under setting [2], 94%.
Take `CCN1CCN(c2ccc(-c3nccc4[nH]c(CN5CCOCC5)cc34)cc2)CC1` [Example A3, 4-[[4-[4-(4-ethylpiperazin-1-yl)phenyl]-1H-pyrrolo[3,2-c]pyridin-2-yl]methyl] morpholine]: the inhibition at 1 µM runs as follows: under setting [1], 100%; under setting [2], 85%.
For `Cc1cc2[nH]c(CN3CCOCC3)cc2c(-c2ccc(N3CCN(C(C)C)CC3)cc2)n1` [Example A4, 4-[[4-[4-[4-isopropylpiperazin-1-yl)phenyl]-6-methyl-1H-pyrrolo[3,2-c]pyridin-2-yl]methyl] morpholine], the inhibition at 1 µM by setting is: under setting [1], 100%; under setting [2], 100%.
On to `CCN1CCN(c2ccc(-c3nc(C)cc4[nH]c(CN5CCOCC5)cc34)cc2)CC1` [Example A5, 4-[[4-[4-(4-ethylpiperazin-1-yl)phenyl]-6-methyl-1H-pyrrolo[3,2-c]pyridin-2-yl]methyl] morpholine], for which the inhibition at 1 µM is, setting by setting: under setting [1], 100%; under setting [2], 91%.
For `CC(C)N1CCN(c2ccc(-c3nccc4c3cc(CN3CCOCC3)n4C)cc2)CC1` [Example A8, 4-[[4-[4-(4-isopropylpiperazin-1-yl)phenyl]-1-methyl-pyrrolo[3,2-c]pyridin-2-yl]methyl] morpholine], the inhibition at 1 µM under setting [2] was determined as 100%.
Regarding `CN1CCN(c2ccc(-c3nccc4c3cc(CN3CCOCC3)n4C)cc2)CC1` [Example A9, 4-[[1-methyl-4-[4-(4-methylpiperazin-1-yl)phenyl]pyrrolo[3,2-c]pyridin-2-yl]methyl] morpholine], the inhibition at 1 µM under setting [2] came out at 94%.
For the compound `CC(C)N1CCN(c2ccc(-c3nccc4[nH]c(CN5CCC(O)CC5)cc34)cc2)CC1` [Example A12, 1-[[4-[4-(4-isopropylpiperazin-1-yl)phenyl]-1H-pyrrolo[3,2-c]pyridin-2-yl]methyl] piperidin-4-ol], the inhibition at 1 µM under setting [1] was found to be 95% and the inhibition at 1 µM under setting [2] is 52%.
On to `CC(C)N1CCN(c2ccc(-c3nccc4[nH]c(CN5CCC6(CC5)CC(O)C6)cc34)cc2)CC1` [Example A13, 7-[[4-[4-(4-isopropylpiperazin-1-yl)phenyl]-1H-pyrrolo[3,2-c]pyridin-2-yl]methyl]-7-azaspiro[3.5] nonan-2-ol], for which the inhibition at 1 µM runs as follows: under setting [1], 100%; under setting [2], 91%.
`CC(C)N1CCN(c2ccc(-c3nccc4[nH]c(CN5CC(F)C5)cc34)cc2)CC1` [Example A16, 2-[(3-fluoroazetidin-1-yl)methyl]-4-[4-(4-isopropylpiperazin-1-yl)phenyl]-1H-pyrrolo[3,2-c]pyridine]: the inhibition at 1 µM is, setting by setting: under setting [1], 100%; under setting [2], 100%.
As for `CC(C)N1CCN(c2ccc(-c3nccc4[nH]c(CN5CCCCC5)cc34)cc2)CC1` [Example A17, 4-[4-(4-isopropylpiperazin-1-yl)phenyl]-2-(1-piperidylmethyl)-1H-pyrrolo[3,2-c]pyridine], the inhibition at 1 µM under setting [1] came out at 100% and the inhibition at 1 µM under setting [2] came to 100%.
As for `CC(C)N1CCN(c2ccc(-c3nccc4[nH]c(CN5CCC(F)CC5)cc34)cc2)CC1` [Example A24, 2-[(4-fluoro-1-piperidyl)methyl]-4-[4-(4-isopropylpiperazin-yl)phenyl]-1H-pyrrolo[3,2-c] pyridine], the inhibition at 1 µM under setting [2] stood at 100%.
As for `CN1CCN(c2ccc(-c3nccc4[nH]c(CN5CCC(F)CC5)cc34)cc2)CC1` [Example A25, 2-[(4-fluoro-1-piperidyl)methyl]-4-[4-(4-methylpiperazin-1-yl)phenyl] - 1H-pyrrolo[3,2-c]pyridine], the inhibition at 1 µM under setting [1] turned out to be 100% and the inhibition at 1 µM under setting [2] came to 100%.
Turning to `Cc1cc2[nH]c(Cn3cccn3)cc2c(-c2ccc(N3CCN(C(C)C)CC3)cc2)n1` [Example A28, 4-[4-(4-isopropylpiperazin-1-yl)phenyl]-6-methyl-2-(pyrazol-1-ylmethyl)-1H-pyrrolo[3,2-c]pyridine], the inhibition at 1 µM reads like this: under setting [1], 100%; under setting [2], 100%.
In the case of `Cc1cc2[nH]c(CN3CCC4(CC3)CC(O)C4)cc2c(-c2ccc(N3CCN(C(C)C)CC3)cc2)n1` [Example A29, 7-[[4-[4-(4-isopropylpiperazin-1-yl)phenyl]-6-methyl-1H-pyrrolo[3,2-c]pyridin-2-yl]methyl]-7-azaspiro[3.5] nonan-2-ol], the inhibition at 1 µM under setting [1] was 96% and the inhibition at 1 µM under setting [2] was found to be 64%.
The like results for `Cc1cc2[nH]c(CN3CCC4(CC3)CC(C)C4)cc2c(-c2ccc(N3CCN(C(C)C)CC3)cc2)n1` [Example A30, 4-[4-(4-isopropylpiperazin-1-yl)phenyl]-6-methyl-2-[(2-methyl-7-azaspiro[3.5]nonan-7-yl)methyl]-1H-pyrrolo[3,2-c]pyridine] were, in that order, 100% and 100%.
Regarding `CC(C)N1CCN(c2ccc(-c3nc(C4CC4)cc4[nH]c(CN5CCOCC5)cc34)cc2)CC1` [Example A33, 4-[[6-cyclopropyl-4-[4-(4-isopropylpiperazin-1-yl)phenyl]-1H-pyrrolo[3,2-c]pyridin-2-yl]methyl] morpholine], the inhibition at 1 µM under setting [2] stood at 85%.
Turning to `CN1CCN(c2ccc(-c3nc(C4CC4)cc4[nH]c(CN5CCOCC5)cc34)cc2)CC1` [Example A34, 4-[[6-cyclopropyl-4-[4-(4-methylpiperazin-1-yl)phenyl]-1H-pyrrolo[3,2-c]pyridin-2-yl]methyl] morpholine], the inhibition at 1 µM under setting [2] amounted to 93%.
As to `Cc1cc2c(cc(CN3CCOCC3)n2C)c(-c2ccc(N3CCN(C(C)C)CC3)cc2)n1` [Example A35, 4-[[4-[4-(4-isopropylpiperazin-1-yl]phenyl]-1,6-dimethyl-pyrrolo[3,2-c]pyridin-2-yl]methyl] morpholine], the inhibition at 1 µM under setting [1] was found to be 100% and the inhibition at 1 µM under setting [2] stood at 90%.
